In general, Tmax refers to the time at which the peak concentration occurs. The bioavailability is the share of a dose that reaches the circulation, judged against a reference dose that is usually intravenous. As usually defined, the Cmax is the highest concentration seen after dosing. In general, logD refers to the decadic logarithm of the distribution of all forms, ionised or not, between an organic phase and buffer at a given pH. Read a high logD as a more lipophilic compound.

Several values for one entry are separate records, joined by “and”; a condition that tells them apart may be missing. Equal entries are not always repeated. Where two headings read alike, the source gives them in different places.

Experimental findings from publication PMC7893776, “Selecting an anti-malarial clinical candidate from two potent dihydroisoquinolones” (Malaria Journal, 2021) are described below.

Data set [1] can be described thus: LogD octanol/pH 7.4 buffer shake flask. It is filed as physicochemical. The protocol:
Octanol/pH 7.4 buffer partitioning experiments were conducted using a shake flask method, and pKa was assessed by potentiometric titration. Both methods have been described previously.

The target in the next data set is T1, CYP2C9 (Homo sapiens, UniProt P11712).
T1 construct: purchased Cypex Ltd (Bactosomes)
T1 sequence (P11712 whole entry): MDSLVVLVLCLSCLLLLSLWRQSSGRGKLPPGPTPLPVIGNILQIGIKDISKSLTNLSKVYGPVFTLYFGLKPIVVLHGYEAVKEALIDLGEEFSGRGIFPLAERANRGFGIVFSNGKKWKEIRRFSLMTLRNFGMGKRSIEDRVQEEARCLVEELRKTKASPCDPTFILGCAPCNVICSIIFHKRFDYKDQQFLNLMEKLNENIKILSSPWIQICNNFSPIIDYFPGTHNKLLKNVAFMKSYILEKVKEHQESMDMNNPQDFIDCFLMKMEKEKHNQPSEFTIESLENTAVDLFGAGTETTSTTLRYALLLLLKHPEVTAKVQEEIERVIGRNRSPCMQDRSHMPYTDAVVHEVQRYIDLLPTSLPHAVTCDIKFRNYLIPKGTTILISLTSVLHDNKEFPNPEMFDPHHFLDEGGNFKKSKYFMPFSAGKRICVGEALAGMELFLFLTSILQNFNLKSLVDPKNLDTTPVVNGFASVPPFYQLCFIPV
Description: CYP450 inhibition, CYP2C9. It is filed as in vitro ADME. The following applies: for inhibition of CYP2C9: 10 µM, probe substrate Diclofenac, replicate measurements. The protocol: SJ733 was first pre-incubated with Bactosomes™ (Cypex Ltd, final P450 concentration: CYP1A1 25 pmol/mL, CYP1A2 100 pmol/mL,CYP1B1 100 pmol/mL, CYP2B6 100 pmol/mL, CYP2C8 50 pmol/mL, CYP2C9, 25 pmol/mL, CYP2C19 100 pmol/mL, CYP2D6 50 pmol/mL and CYP3A4 25 pmol/mL, 0.1 M phosphate buffer pH 7.4) at 37 °C prior to the addition of NADPH (final concentration 1 mM) to initiate the reaction with a final incubation volume of 50 μL. Incubations were also performed using control Bactosomes™ (no P450 enzymes present) to reveal any non-enzymatic degradation. Control compounds known to be metabolized specifically by each P450 isoform were included individually. Test articles and controls were incubated with each isoform for 0, 5, 15, 30, and 45 min. The reactions were stopped by transferring 20 μL of the reaction mixture to 60 μL methanol at the appropriate timepoints.
In an alternate approach SJ311 was studied using a validated cocktail probe substrate method. […] All samples were analyzed using LC MS/MS, with either positive atmospheric pressure chemical ionization (APCI) mode (SJ311) or ESI (SJ733) mode utilizing multiple reaction monitoring (MRM) scans.

Data set [2] in a line: Dog pharmacokinetics, single PO or IV dose. In kind it is in vivo, male beagle dogs. The following applies: for bioavailability: read-out: Dog F (oral bioavailability). An excerpt:
Studies were undertaken to determine the plasma pharmacokinetics of SJ733 and SJ311. These studies included: (i) single oral gavage (PO) or intravenous (IV) dose administration to female C57BL/6 mice; (ii) single PO or IV dose administration to male Sprague Dawley (SD) rats; (iii) single PO or IV dose administration to male beagle dogs; (iv) toxicokinetic (TK) study following single PO administration to male SD rats. The PO and IV formulation used for mouse studies at SJCRH was 1% hydroxypropyl-beta-cyclodextrin (w/v), 10% ethanol (v/v), 10% propylene glycol (v/v), 40% PEG-400 (v/v) and 39% PBS (pH 7.4) isotonic (v/v). Compounds were dosed orally as suspensions, and intravenously as filtered solutions. Compound concentrations were confirmed post filtration using UV spectroscopy. The IV formulation used for rat studies (Monash University) was the same as that used for mice. For PO dosing to rats (Monash University) at 2 mg/kg, a suspension formulation was used containing 0.5% (w/v) hydroxypropyl methylcellulose, 0.5% (v/v) benzyl alcohol and 0.4% (v/v) Tween 80. The formulation used for rat studies at SRI (PO, high dose) was the same as that used in mouse PK studies. The formulation for the high dose TK study at SRI was 0.5% methylcellulose in sterile water. The formulation used for dog studies was the same as that used in mouse PK studies. The plasma PK of SJ733 and SJ311 following a single PO gavage or IV dose (via saphenous vein) to male beagle dogs was determined at an IV dose of 3 mg/kg and PO doses of 3 and 30 mg/kg (n = 3 for each). Briefly, this PK study was carried out in three sessions with one week washout period in between to allow for complete clearance of compounds. In the first session, 6 male dogs were administered a single 3 mg/kg IV dose of SJ311 or SJ733. In the subsequent second and third sessions, the same 6 male dogs were given a single 3 mg/kg or 30 mg/kg PO dose of SJ311 or SJ733, respectively. Plasma (0 -72 h) and urine (0–48 h) samples were collected for further analysis of SJ311 or SJ733 concentrations. Dog plasma was extracted utilizing protein precipitation with a twofold volume ratio of acetonitrile, while urine samples were extracted utilizing liquid–liquid extraction with ethyl acetate. SJ733, SJ311, and verapamil (IS) were quantitated by LC–MS/MS as described above. Plasma concentration time (Ct) data for SJ733 and SJ311 were grouped by nominal time point, and the mean Ct values were subjected to noncompartmental analysis (NCA) using Phoenix WinNonlin 8.1 (Certara USA, Inc., Princeton, NJ). For all experiments, the area under the Ct and first moment curves (AUC, AUMC) were estimated using the “linear up log down” method. The terminal phase was defined as at least three time points at the end of the Ct profile, and the elimination rate constant (Kel) was estimated using an unweighted log-linear regression of the terminal phase. The terminal elimination half-life (T1/2) was estimated as 0.693/Kel, and the AUC from time 0 to infinity ([…]) was estimated as the AUC to the last time point (AUClast) + Clast (predicted)/Kel with the […] similarly calculated. Additional parameters estimated included observed maximum concentration (Cmax), time of Cmax (Tmax), concentration at the last observed time point (Clast), time of Clast (Tlast), and the apparent oral terminal volume of distribution (V/F). The apparent oral clearance (CL/F), systemic clearance (CL) and volume of distribution at steady state (Vss) were all estimated using standard formulae [19].

The mark [3] stands for this setting: male, beagle, plasma, po, dosed orally, read-out: Tmax.
Where [4] appears, read: male, beagle, plasma, po, summary over the oral doses studied.

As for `N#Cc1cc(NC(=O)C2c3ccccc3C(=O)N(CC(F)(F)F)C2c2cn[nH]c2)ccc1F` (racemic) [(r)-SJ311], in data set [1], the “LogD (7.4) Shake flask” value amounted to 2.34. Moreover, the “inhibition of CYP2C9” value on CYP2C9 is 19% and 15%.

On to `N#Cc1cc(NC(=O)C2c3ccccc3C(=O)N(CC(F)(F)F)C2c2cccnc2)ccc1F` (racemic) [(r)-SJ733], for which the “inhibition of CYP2C9” value on CYP2C9 was 34% and 17%.

Turning to `N#Cc1cc(NC(=O)[C@H]2c3ccccc3C(=O)N(CC(F)(F)F)[C@@H]2c2cccnc2)ccc1F` (racemic) [SJ733], the “CYP2C9 inhibition, in words” value at CYP2C9 is “weak inhibitors”. The time of peak concentration (Tmax) in data set [2] (setting [3]) stood at 1 h. For the same compound, in data set [2] (setting [4]), the bioavailability lay within 60 to 100%. In data set [2] (summary over the oral doses studied), the “Dog F (oral bioavailability)” value is 74-115%.

With `N#Cc1cc(NC(=O)[C@H]2c3ccccc3C(=O)N(CC(F)(F)F)[C@@H]2c2cn[nH]c2)ccc1F` [(+)-SJ311], in data set [1], the “LogD (7.4) Shake flask” value was determined as 2.30. Besides, in data set [2] (single IV 3 mg/kg), the AUCinf amounted to 77.0 ± 12.4 µM·h, the CL amounted to 0.085 ± 0.013 L/h/kg, the Dose in urine is reported as 32.3 ± 21.3% and the Half life is on record as 7.8 ± 2.2 h. This compound also had a Vss in data set [2] (single IV 3 mg/kg) of 0.96 ± 0.27 L/kg. In data set [2] (single PO 3 mg/kg), this compound returned an AUCinf of 56.2 ± 12.1 µM·h, a CL of 0.121 ± 0.030 L/h/kg, a peak concentration (Cmax) of 4 ± 0.8 µM and a Dose in urine of 34.7 ± 15.9%. Besides, in data set [2] (single PO 3 mg/kg), the F% is listed as 73.0 ± 15.8%, the Half life was found to be 6.1 ± 0.6 h, the time to peak (Tmax) was 3.3 ± 1.2 h and the V was 1.1 ± 0.4 L/kg. In data set [2] (single PO 30 mg/kg), this compound came in with an AUCinf of 601 ± 137 µM·h, a CL of 0.113 ± 0.025 L/h/kg, a Cmax of 35 ± 5.1 µM and a Dose in urine of 33.4%. For the same compound, in data set [2] (single PO 30 mg/kg), the F% is 77.9 ± 17.7%, the Half life is 6.7 ± 1.4 h, the time to peak (Tmax) stood at 3.0 ± 1.7 h and the V is on record as 1.1 ± 0.4 L/kg.

Take `N#Cc1cc(NC(=O)[C@H]2c3ccccc3C(=O)N(CC(F)(F)F)[C@@H]2c2cccnc2)ccc1F` [(+)-SJ733]: in data set [2] (single IV 3 mg/kg), the AUCinf worked out at 33.1 ± 10.0 µM·h, the CL was determined as 0.204 ± 0.054 L/h/kg, the Dose in urine stood at 1.9 ± 0.3% and the Half life was determined as 9.6 ± 4.7 h. Further, in data set [2] (single IV 3 mg/kg), the Vss is reported as 2.8 ± 1.8 L/kg. Further, in data set [2] (single PO 3 mg/kg), the AUCinf came out at 40.6 ± 12.9 µM·h, the CL amounted to 0.169 ± 0.055 L/h/kg, the peak concentration (Cmax) was 3 ± 0.7 µM and the Dose in urine worked out at 2.8 ± 0.2%. Also, in data set [2] (single PO 3 mg/kg), the F% worked out at 115 ± 29%, the Half life stood at 11.4 ± 5.0 h, the Tmax was determined as 0.83 h and the V amounted to 2.6 ± 0.8 L/kg. In data set [2] (single PO 30 mg/kg), this compound returned an AUCinf of 243 ± 52.9 µM·h, a CL of 0.274 ± 0.067 L/h/kg, a Cmax of 25.6 ± 2.1 µM and a Dose in urine of 3.1 ± 1.9%. For the same compound, in data set [2] (single PO 30 mg/kg), the F% is given as 73.7 ± 16.1%, the Half life was determined as 5.3 ± 0.7 h, the time to peak (Tmax) is on record as 1.67 h and the V came out at 2.1 ± 0.8 L/kg.

Compound `N#Cc1cc(NC(=O)[C@H]2c3ccccc3C(=O)N(CC(F)(F)F)[C@@H]2c2cn[nH]c2)ccc1F` [SJ311] showed a logD in data set [1] (pH 7.4) of 2.3. Moreover, the “CYP2C9 inhibition, in words” value at CYP2C9 is reported as “weak inhibitors”. For the same compound, the time to peak (Tmax) in data set [2] (setting [3]) is 3 h. The bioavailability in data set [2] (setting [4]) fell in the range of 74 to 78%. Further, the “% dose recovered in dog urine” value in data set [2] (regardless of route, mean) is 32-34%.
